Measurements: patent US8541585B2, “N-acyl cyclic amine derivative or pharmaceutically acceptable salt thereof” (Dainippon Sumitomo Pharma Co., Ltd., priority 2010, dated 2013)

How the values were obtained:
[1] = target: human D2L receptor (Homo sapiens, UniProt P14416); assay: Dopamine D2L receptor binding assay ([3H]-spiperone); conditions: 10 nM test drug; [3H]-spiperone 0.5 nM; human D2L receptor-expressing CHO cell membrane; read-out: BINDING INHIBITION RATE (%) D2L 10 nM
Description: (1) Dopamine D2L Receptor Binding Assay
D2L receptor binding assay was performed in reference to a method described by Hirose et al. (Japan. J. Pharmacol., 53, 321-329, 1990). After a reaction in a total volume of 200 μL of 50 mM Tris-HCl (pH=7.6) buffer solution containing 50 μL of [^3H]-spiperone (final concentration 0.5 nM), 1 μL of test drug in DMSO, and 149 μL of human D2L receptor-expressing CHO cell membrane sample, human D2L receptor binding activity of [^3H]-spiperone was measured. The reaction solution let stand for 60 minutes at room temperature, and then it was quickly added on a glass fiber filter plate (Multiscreen FB, Millipore inc.) coated with 0.3% polyethyleneimine (PEI) and filtered under reduced pressure. The glass fiber filter was washed with 200 μL of ice-cooled 50 mM Tris-HCl (pH=7.6) twice, repeatedly filtered under reduced pressure, and then transferred to a vial containing 4 mL of Ecoscint A (National Diagnostics inc.). The residual radioactivity on the glass fiber filter was measured by a liquid scintillation counter. Nonspecific binding was measured in the presence of 10 μM of spiperone, and [^3H]-spiperone binding inhibition rate in the presence of 10 nM of test drug was determined. The larger binding inhibition rate (%) means that test drug has the higher binding affinity for human D2L receptor.

[2] = target: T1, human α1D receptor (Homo sapiens, UniProt P25100); assay: Adrenaline α1D receptor binding assay ([3H]-prazosin); conditions: 100 nM test drug; [3H]-prazosin 0.6 nM; human α1D receptor-expressing CHO cell membrane; read-out: BINDING INHIBITION RATE (%) α1D 100 nM
T1 construct: expressed in transfected cells; host or cells: CHO cells (membrane preparation)
T1 sequence (P25100 1-572): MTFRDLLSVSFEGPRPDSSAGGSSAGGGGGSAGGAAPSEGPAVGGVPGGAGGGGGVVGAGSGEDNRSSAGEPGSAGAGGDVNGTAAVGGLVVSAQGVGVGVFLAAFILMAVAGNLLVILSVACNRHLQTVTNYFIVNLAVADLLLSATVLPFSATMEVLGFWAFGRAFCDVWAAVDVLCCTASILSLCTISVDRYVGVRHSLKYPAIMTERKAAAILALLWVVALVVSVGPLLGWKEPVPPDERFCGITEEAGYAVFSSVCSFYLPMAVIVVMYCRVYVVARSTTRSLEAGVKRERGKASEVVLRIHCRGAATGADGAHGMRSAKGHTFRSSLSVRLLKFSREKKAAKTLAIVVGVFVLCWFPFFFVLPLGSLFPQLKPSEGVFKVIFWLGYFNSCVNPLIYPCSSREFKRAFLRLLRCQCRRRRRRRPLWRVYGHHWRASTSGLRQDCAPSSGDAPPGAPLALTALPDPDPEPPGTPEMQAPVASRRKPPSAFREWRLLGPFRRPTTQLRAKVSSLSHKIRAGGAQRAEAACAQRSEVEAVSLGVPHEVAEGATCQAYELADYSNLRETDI
Description: (4) Adrenaline α1D Receptor Binding Assay
After a reaction in a total volume of 200 μL of 50 mM Tris-HCl (pH=7.6) buffer solution containing 50 μL of [^3H]-prazosin (final concentration 0.6 nM), 1 μL of test drug in DMSO, and 149 μL of human α1D receptor-expressing CHO cell membrane sample, human α1D receptor binding activity of [^3H]-prazosin was measured. The reaction solution let stand for 30 minutes at room temperature, and then it was quickly added on a glass fiber filter plate (Multiscreen FB, Millipore inc.) coated with 0.3% polyethyleneimine (PEI) and filtered under reduced pressure. The glass fiber filter was washed with 200 μL of ice-cooled 50 mM Tris-HCl (pH=7.6) twice, repeatedly filtered under reduced pressure, and then transferred to a vial containing 4 mL of Ecoscint A (National Diagnostics inc.). The residual radioactivity on the glass fiber filter was measured by a liquid scintillation counter. Nonspecific binding was measured in the presence of 1 μM of prazosin, and [^3H]-prazosin binding inhibition rate in the presence of 100 nM of test drug was determined.

[3] = target: T2, human 5-HT2A receptor (Homo sapiens, UniProt P28223); assay: Serotonin 5-HT2A receptor binding assay ([3H]-ketanserin); conditions: [3H]-ketanserin 1 nM, human 5-HT2A receptor-expressing CHO cell membrane; for inhibition at 0.001 µM: 1 nM test drug, read-out: BINDING INHIBITION RATE (%) 5HT2A 1 nM; for inhibition at 0.01 µM: 10 nM test drug, read-out: BINDING INHIBITION RATE (%) 5HT2A 10 nM
T2 construct: expressed in transfected cells; host or cells: CHO cells (membrane preparation)
T2 sequence (P28223 whole entry): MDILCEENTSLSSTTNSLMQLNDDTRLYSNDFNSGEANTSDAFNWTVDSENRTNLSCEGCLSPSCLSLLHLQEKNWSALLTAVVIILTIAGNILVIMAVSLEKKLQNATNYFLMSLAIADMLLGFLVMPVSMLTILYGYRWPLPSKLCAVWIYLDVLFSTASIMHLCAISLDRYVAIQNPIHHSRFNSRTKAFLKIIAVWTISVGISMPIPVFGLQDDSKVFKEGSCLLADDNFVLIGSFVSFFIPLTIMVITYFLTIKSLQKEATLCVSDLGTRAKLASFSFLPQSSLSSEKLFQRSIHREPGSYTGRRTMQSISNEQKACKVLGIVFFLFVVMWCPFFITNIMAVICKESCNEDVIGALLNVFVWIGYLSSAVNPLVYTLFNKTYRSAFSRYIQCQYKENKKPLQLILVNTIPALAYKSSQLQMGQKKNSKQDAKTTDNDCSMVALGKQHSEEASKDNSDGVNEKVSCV
Description: (2) Serotonin 5-HT2A Receptor Binding Assay
5-HT2A receptor binding assay was performed in reference to a method described by Hirose et al. (Japan. J. Pharmacol., 53, 321-329, 1990). After a reaction in a total volume of 200 μL of 50 mM Tris-HCl (pH=7.6) buffer solution containing 50 μL of [^3H]-ketanserin (final concentration 1 nM), 1 μL of test drug in DMSO, and 149 μL of human 5-HT2A receptor-expressing CHO cell membrane sample, human 5-HT2A receptor binding activity of [^3H]-ketanserin was measured. The reaction solution let stand for 15 minutes at 37° C., and then it was quickly added on a glass fiber filter plate (Multiscreen FB, Millipore inc.) coated with 0.05% Brij 35 and filtered under reduced pressure. The glass fiber filter was washed with 200 μL of ice-cooled 50 mM Tris-HCl (pH=7.6) twice, repeatedly filtered under reduced pressure, and then transferred to a vial containing 4 mL of Ecoscint A (National Diagnostics inc.). The residual radioactivity on the glass fiber filter was measured by a liquid scintillation counter. Nonspecific binding was measured in the presence of 10 μM of MDL-100907, and [^3H]-ketanserin binding inhibition rate in the presence of 1 nM or 10 nM of test drug was determined.

[4] = target: T3, human 5-HT6 receptor (Homo sapiens, UniProt P50406); assay: Serotonin 5-HT6 receptor binding assay ([3H]-clozapine); conditions: 100 nM test drug; [3H]-clozapine 2 nM; human 5-HT6 receptor-expressing CHO cell membrane; read-out: BINDING INHIBITION RATE (%) 5HT6 100 nM
T3 construct: expressed in transfected cells; host or cells: CHO cells (membrane preparation)
T3 sequence (P50406 whole entry): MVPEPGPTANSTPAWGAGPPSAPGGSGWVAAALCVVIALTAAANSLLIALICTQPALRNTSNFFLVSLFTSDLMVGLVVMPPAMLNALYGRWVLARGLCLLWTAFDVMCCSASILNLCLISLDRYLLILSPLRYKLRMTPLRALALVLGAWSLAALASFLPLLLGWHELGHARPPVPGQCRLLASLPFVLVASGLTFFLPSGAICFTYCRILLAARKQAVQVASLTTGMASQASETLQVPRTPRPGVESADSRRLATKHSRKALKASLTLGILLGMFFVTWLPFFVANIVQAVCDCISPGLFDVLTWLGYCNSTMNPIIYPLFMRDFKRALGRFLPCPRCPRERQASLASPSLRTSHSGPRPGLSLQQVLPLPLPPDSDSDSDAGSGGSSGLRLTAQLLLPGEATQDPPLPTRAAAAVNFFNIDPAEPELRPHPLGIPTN
Description: (3) Serotonin 5-HT6 Receptor Binding Assay
After a reaction in a total volume of 200 μL of 50 mM Tris-HCl (pH=7.6), 4 mM CaCl2, and 0.5 mM EDTA buffer solution containing 50 μL of [^3H]-clozapine (final concentration 2 nM), 1 μL of test drug in DMSO, and 149 μL of human 5-HT6 receptor-expressing CHO cell membrane sample, human 5-HT6 receptor binding activity of [^3H]-clozapine was measured. The reaction solution let stand for 40 minutes at room temperature, and then it was quickly added on a glass fiber filter plate (Multiscreen FB, Millipore inc.) coated with 0.3% polyethyleneimine (PEI) and filtered under reduced pressure. The glass fiber filter was washed with 200 μL of ice-cooled 50 mM Tris-HCl (pH=7.6) twice, repeatedly filtered under reduced pressure, and then transferred to a vial containing 4 mL of Ecoscint A (National Diagnostics inc.). The residual radioactivity on the glass fiber filter was measured by a liquid scintillation counter. Nonspecific binding was measured in the presence of 10 μM of SB-258585, and [^3H]-clozapine binding inhibition rate in the presence of 100 nM of test drug was determined.

human D2L receptor, sequence (P14416 whole entry): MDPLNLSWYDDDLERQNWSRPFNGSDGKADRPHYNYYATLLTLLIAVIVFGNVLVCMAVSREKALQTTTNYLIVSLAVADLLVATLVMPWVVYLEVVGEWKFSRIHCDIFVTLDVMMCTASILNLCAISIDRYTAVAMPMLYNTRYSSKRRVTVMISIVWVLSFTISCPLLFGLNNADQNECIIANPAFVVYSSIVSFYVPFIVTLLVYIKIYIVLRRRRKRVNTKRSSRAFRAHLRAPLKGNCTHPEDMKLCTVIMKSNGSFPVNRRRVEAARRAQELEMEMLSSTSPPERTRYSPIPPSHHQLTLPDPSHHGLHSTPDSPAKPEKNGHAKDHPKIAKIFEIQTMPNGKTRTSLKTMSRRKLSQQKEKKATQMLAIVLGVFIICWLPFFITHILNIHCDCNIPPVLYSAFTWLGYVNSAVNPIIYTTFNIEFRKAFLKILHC

Row | Structure (SMILES) | inhibition at 0.01 µM [1] [%] | inhibition at 0.1 µM [2] [%] | inhibition at 0.001 µM [3] [%] | inhibition at 0.01 µM [3] [%] | inhibition at 0.1 µM [4] [%]
1 | COc1ccc2[nH]c(C(=O)N3CCCC[C@H]3CCN3CCC(c4coc5ccccc45)CC3)cc2c1 [Example 26] | 77 | 67 | 77 | 98 | 65
2 | Cc1ccc2[nH]c(C(=O)N3CCOC[C@H]3CCN3CCC(c4coc5ccccc45)CC3)cc2c1 [Example 27] | 87 | 97 | – | 93 | 85
3 | O=C(/C=C/c1ccc2c(c1)OCO2)N1CCC[C@H](CN2CCC(c3coc4ccccc34)CC2)C1 [Example 29] | 80 | 92 | – | 100 | 85
4 | COc1ccc2cc(C(=O)N3CCCC[C@H]3CCN3CCC(c4c[nH]c5ccccc45)CC3)[nH]c2c1 [Example 31] | 78 | 54 | – | 96 | 88
5 | COc1ccc2cc(C(=O)N3CC[C@H]3CCN3CCC(c4c[nH]c5ccccc45)CC3)[nH]c2c1 [Example 32] | 36 | 68 | – | 95 | 97
6 | O=C(/C=C/c1ccc2c(c1)OCO2)N1CCC[C@H](CN2CCC(c3c[nH]c4ccccc34)CC2)C1 [Example 34] | 75 | 93 | – | 98 | 86
7 | COc1ccc2cc(C(=O)N3C[C@H](O)C[C@H]3CCN3CCC(c4c[nH]c5ccccc45)CC3)[nH]c2c1 [Example 35] | 37 | 81 | – | 89 | 79
8 | CCNC(=O)O[C@@H]1C[C@@H](CCN2CCC(c3c[nH]c4ccccc34)CC2)N(C(=O)c2cc3cc(OC)ccc3[nH]2)C1 [Example 36] | 48 | 75 | – | 87 | 86
9 | COc1ccc2[nH]c(C(=O)N3C[C@@](C)(O)C[C@H]3CCN3CCC(c4c[nH]c5ccccc45)CC3)cc2c1 [Example 38] | 72 | 67 | – | 97 | 86
10 | Cc1ccc2cc(C(=O)N3C[C@H](O)CC[C@H]3CCN3CCC(c4c[nH]c5ccccc45)CC3)[nH]c2c1 [Example 39] | 77 | 69 | 70 | – | 86
11 | Cc1ccc2cc(C(=O)N3CCOCCC3CCN3CCC(c4c[nH]c5ccccc45)CC3)[nH]c2c1 (stereo not shown) [Example 43] | 74 | 82 | 77 | – | 83
12 | O=C(c1ccc(F)cc1)C1CCN(C[C@H]2CCCN(C(=O)c3cc4ccc(Cl)cc4[nH]3)C2)CC1 [Example 45] | 82 | 46 | 84 | – | 97
13 | Cc1cc2c3c(c1)cc(C(=O)N1CCC[C@H]1CCN1CCC(C(=O)c4ccc(F)cc4)CC1)n3CCC2=O [Example 46] | 58 | 54 | 48 | – | 82
14 | COc1cc2cc(C(=O)N3CCC[C@H]3CCN3CCC(C(=O)c4ccc(F)cc4)CC3)[nH]c2cn1 [Example 50] | 71 | 43 | 66 | – | 88
15 | O=C(c1ccc(F)cc1)C1CCN(CC[C@@H]2CCCN2C(=O)c2cc(-c3ccccc3)n[nH]2)CC1 [Example 51] | 81 | 51 | 76 | – | 95
16 | O=C(c1ccc(F)cc1)C1CCN(CC[C@@H]2CCCN2C(=O)c2[nH]c3ccccc3c2C(=O)N2CCCCC2)CC1 [Example 54] | 71 | 63 | 7 | – | 81
17 | N#Cc1ccc2[nH]c(C(=O)N3CCC[C@H]3CCN3CCC(C(=O)c4ccc(F)cc4)CC3)cc2c1 [Example 56] | 84 | 70 | 70 | – | 91
18 | O=C(c1nc2cc(Cl)ccc2[nH]1)N1CCCC[C@H]1CCN1CCC(c2c[nH]c3ccccc23)CC1 [Example 58] | 57 | 97 | 74 | 91 | 98
19 | Cc1ccc2nc(C(=O)N3CCC[C@H]3CCN3CCC(C(=O)c4ccc(F)cc4)CC3)[nH]c2c1 [Example 59] | 91 | 95 | 58 | – | 87
20 | COc1ccc2[nH]c(C(=O)N3CCC[C@H]3CCN3CCC(c4cn(-c5ccc(F)cc5)c5ccc(Cl)cc45)CC3)cc2c1 [Example 60] | 76 | 76 | – | 78 | 97
